Reference: PMC6030209, “Structure-Activity Investigations and Optimisations of Non-metabolite Agonists for the Succinate Receptor 1” (Scientific Reports, 2018)
pEC50: −log10 of the molar value. Read-outs that look alike come from different tables or passages of the source.

What was measured:
Assay type in all cases: cell-based
mSUCNR1 = target: T1, mSUCNR1 (Mus musculus, UniProt Q99MT6); experiment: IP3 turnover assay in mSUCNR1 transfected HEK-293 cells; details: for mSUCNR1 efficacy, %: efficacy relative to succinate (100%), HEK cells (N = 3); for EC50: read-out: mSUCNR1 pEC50 (converted)
T1 construct: FLAG (own knowledge: pCMV-Tag 2B is an N-terminal FLAG vector); host or cells: HEK-293, transient transfection with Lipofectamine-2000
T1 sequence (Q99MT6 1-317): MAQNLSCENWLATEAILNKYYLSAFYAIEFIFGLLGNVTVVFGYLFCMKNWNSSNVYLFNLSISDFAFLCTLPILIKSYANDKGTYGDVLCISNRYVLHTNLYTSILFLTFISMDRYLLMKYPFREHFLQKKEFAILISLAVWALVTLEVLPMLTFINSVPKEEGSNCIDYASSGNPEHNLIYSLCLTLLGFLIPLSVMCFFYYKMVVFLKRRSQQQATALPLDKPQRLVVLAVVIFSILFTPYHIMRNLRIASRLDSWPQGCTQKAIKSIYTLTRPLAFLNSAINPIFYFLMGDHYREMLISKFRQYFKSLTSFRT
Description: (§1) Receptor constructs for mSUCNR1 and hSUCNR1 were bought from Origene and cloned into the eukaryotic expression vector pCMV-Tag(2B) (Stratagene).
(§2) Transient transfection of the HEK-293 cells was done with Lipofectamine-2000 according to manufacturer’s protocol. Cells were supplemented with fresh medium after 5 h.
(§3) 96-well plates were coated with poly-D-lysine and HEK-293 cells were plated (35.000 cells/well). Cells were transfected for 5 h the following day and subsequently incubated O/N with 0.5 μCi/mL myo[3H]inositol (Perkin Elmer) in 100 μL growth medium. On day 3 cells were washed with 200 µL HBSS/well (Gibco, Life Technologies) followed by a pre-incubation (30 min, 37 °C) with 100 µL HBSS supplemented with 10 mM LiCl. Cells were stimulated with ligand (120 min, 37 °C) and lysed with 50 µL 10 mM formic acid (30 min on ice). In a white 96 well plate 20 µL cell extracts and 80 µL 1:8 diluted YSi scintillation beads (Perkin Elmer) were mixed. The plate was spun down, and a Packard Top Count NXT counter recorded light emission (scintillation) after an 8 h delay.

hSUCNR1 = target: T2, hSUCNR1 (Homo sapiens, UniProt Q9BXA5); experiment: IP3 turnover assay in hSUCNR1 transfected HEK-293 cells; details: for hSUCNR1 efficacy, %: efficacy relative to succinate (100%), HEK cells (N = 3); for EC50: read-out: hSUCNR1 pEC50 (converted)
T2 construct: FLAG (own knowledge: pCMV-Tag 2B is an N-terminal FLAG vector); host or cells: HEK-293, transient transfection with Lipofectamine-2000
T2 sequence (Q9BXA5 1-334): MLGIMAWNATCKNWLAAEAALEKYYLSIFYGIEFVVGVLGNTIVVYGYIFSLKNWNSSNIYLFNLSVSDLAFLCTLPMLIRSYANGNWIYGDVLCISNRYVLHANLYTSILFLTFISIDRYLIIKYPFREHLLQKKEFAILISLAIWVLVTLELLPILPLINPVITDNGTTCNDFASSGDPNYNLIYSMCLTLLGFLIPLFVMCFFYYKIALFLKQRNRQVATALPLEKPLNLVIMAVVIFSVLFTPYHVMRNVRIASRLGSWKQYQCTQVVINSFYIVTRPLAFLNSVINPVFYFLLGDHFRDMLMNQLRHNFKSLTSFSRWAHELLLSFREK
Description: as §1, §2, §3

SUCNR1 = experiment: Active/inactive grouping by EC50 threshold (ALiBERO training set, Table S1); details: active (1) / inactive (0), EC50 threshold of 10 µM
Excerpt: In brief, starting from the homology model supported by mutagenesis data[4], ALiBERO introduced receptor flexibility via Normal Mode Analysis and Monte Carlo sampling, to generate a small subset of receptor models (pockets). […] For a list of all compounds used in the optimisation protocol, see Table S1. Receptor structures were then chosen based on their ability to discriminate actives from inactives in a retrospective virtual screening using the docking protocol and scoring function in ICM (Molsoft L.L.C., San Diego, CA, USA)[20], as measured by the normalised square root area under the curve (NSQ_AUC). […] The ALiBERO-optimised receptor ensemble was subsequently validated in a virtual ligand screening using an external test set with a higher active:decoy ratio (~1:50).
ALiBERO is an iterative sampling-selection protocol for receptor optimisation that relies on the use of ligand information for selecting the best-performing receptor conformations. Homology models of the mouse SUCNR1 receptor were constructed according to Trauelsen et al.[4] and loaded into ICM (Molsoft L.L.C., San Diego, CA, USA). The structure was converted into an ICM object, thereby assigning protein atom types, optimising hydrogens and His, Pro, Asn, […] and Cys side-chain conformations. […] For a list of all compounds used in the optimisation protocol, see Table S1. ALiBERO was performed using the prepared receptor structure and ligand training set as input. Binding site residues were manually selected based on proximity to the position of MRS2500 in the superimposed structure of the P2Y1 receptor (PDB 4XNW). 100 elastic network normal mode analysis derived conformers were built in order to recreate backbone and side-chain flexibility (T = 300 K). Next, a flexible-ligand static-receptor small-scale virtual screening was performed on each of the receptor conformers, from which several pockets were selected for the following generation. The ligand and decoy molecules were docked into mSUCNR1, represented as pre-calculated potential grids and then sorted according to their ICM VLS scores. The maximum number of complementary pockets for each generation was set to 5 with a maximum of 10 generations. Receptor models were selected based on their combined screening performance, as determined by the normalised square root area under the curve, NSQ_AUC. After each round of virtual screening, an all-atom Monte Carlo side-chain refinement was performed to account for induced-by-ligand changes. NSQ_AUC values were calculated according to Katritch et al.[16].

[1] = dose-response curves of induction of IP3 turnover in SUCNR1 transfected HEK cells (N = 3)
[2] = relative to the 4-methoxy compound 17
[3] = @10^−4M, IP3 turnover, relative to succinate (100%)

SMILES	mSUCNR1 efficacy, % (mSUCNR1; IP3 turnover) [%]	hSUCNR1 efficacy, % (hSUCNR1; IP3 turnover) [%]	Active (SUCNR1)	pEC50 (mSUCNR1)	pEC50 (hSUCNR1)	also measured
Cc1ccc(-c2ccc(C(=O)N[C@@H](CC(=O)O)C(=O)O)o2)cc1 [Compound 13, (5-(p-Tolyl)furan-2-carbonyl)-L-aspartic acid]	73.2 ± 2.7	69.1 ± 3.9	1 (active (1))			mSUCNR1 pEC50 (mSUCNR1; [1]): 6.83 ± 0.11; hSUCNR1 pEC50 (hSUCNR1; [1]): 6.33 ± 0.14
O=C(O)C[C@H](NC(=O)c1ccc(-c2cccc(CO)c2)o1)C(=O)O [Compound 14, (5-(3-(Hydroxymethyl)phenyl)furan-2-carbonyl)-L-aspartic acid]	79.6 ± 3.7	74.2 ± 11.8	1 (active (1))	5.71	4.81	decrease in potency (mSUCNR1; relative to the 3-methyl (12), orthologue not stated): 3 fold
O=C(O)C[C@H](NC(=O)c1ccc(-c2ccc(O)cc2)o1)C(=O)O [Compound 15, (5-(4-Hydroxyphenyl)furan-2-carbonyl)-L-aspartic acid]	74.8 ± 2.0	71.1 ± 4.2	1 (active (1))	6.82	6.13	
COc1ccccc1-c1ccc(C(=O)N[C@@H](CC(=O)O)C(=O)O)o1 [Compound 16, (5-(2-Methoxyphenyl)furan-2-carbonyl)-L-aspartic acid]	78.1 ± 3.1	103.8 ± 7.9	1 (active (1))	6.14	5.29	
COc1ccc(-c2ccc(C(=O)N[C@@H](CC(=O)O)C(=O)O)o2)cc1 [Compound 17, (5-(4-Methoxyphenyl)furan-2-carbonyl)-L-aspartic acid]	84.2 ± 1.8	85.3 ± 4.5	1 (active (1))	7.39	6.41	
O=C(O)C[C@H](NC(=O)c1ccc(-c2ccc(C(F)(F)F)cc2)o1)C(=O)O [Compound 18, (5-(4-(Trifluoromethyl)phenyl)furan-2-carbonyl)-L-aspartic acid]	80.6 ± 4.6	81.0 ± 7.2	1 (active (1))	6.81	6.55	
N#Cc1ccc(-c2ccc(C(=O)N[C@@H](CC(=O)O)C(=O)O)o2)cc1 [Compound 19, (5-(4-Cyanophenyl)furan-2-carbonyl)-L-aspartic acid]	76.0 ± 1.5	72.1 ± 3.2	1 (active (1))	6.79	6.39	
O=C(O)C[C@H](NC(=O)c1ccc(-c2ccc(OC(F)(F)F)cc2)o1)C(=O)O [Compound 20, (5-(4-(Trifluoromethoxy)phenyl)furan-2-carbonyl)-L-aspartic acid]	69.7 ± 2.8	61.7 ± 3.6	1 (active (1))	6.72	6.99	decrease in potency on mSUCNR1 (mSUCNR1; [2]): > 4 fold; increase in potency on hSUCNR1 (hSUCNR1; [2]): 2 fold
CC(C)Oc1ccc(-c2ccc(C(=O)N[C@@H](CC(=O)O)C(=O)O)o2)cc1 [Compound 22, (5-(4-Isopropoxyphenyl)furan-2-carbonyl)-L-aspartic acid]	75.6 ± 1.7	69.6 ± 4.3	1 (active (1))	7.29	6.84	
CC1(COc2ccc(-c3ccc(C(=O)N[C@@H](CC(=O)O)C(=O)O)o3)cc2)COC1 [Compound 23, (5-(4-((3-Methyloxetan-3-yl)methoxy)phenyl)furan-2-carbonyl)-L-aspartic acid]	82.4 ± 1.9	76.5 ± 3.1	1 (active (1))	6.97	6.27	reduction of potency (mSUCNR1; relative to the 4-methoxy compound 17, orthologue not stated): > 2 fold
CS(=O)(=O)CCCOc1ccc(-c2ccc(C(=O)N[C@@H](CC(=O)O)C(=O)O)o2)cc1 [Compound 24, (5-(4-(3-(Methylsulfonyl)propoxy)phenyl)furan-2-carbonyl)-L-aspartic acid]	74.6 ± 2.1	63.9 ± 2.4	1 (active (1))	7.33	6.10	
O=C(O)C[C@H](NC(=O)c1cccc(-c2ccc(F)cc2)c1)C(=O)O [Compound 25, (4′-Fluoro-[1,1′-biphenyl]-3-carbonyl)-L-aspartic acid]	58.0 ± 4.5	49.7 ± 3.9	1 (active (1))			EC50 (mSUCNR1; [1]): 3980 nM; decrease in potency on the mouse orthologue (mSUCNR1; relative to 3): 10 fold; EC50 (hSUCNR1; [1]): 1230 nM
O=C(O)C[C@H](NC(=O)c1ccc(-c2ccc(F)cc2)cc1)C(=O)O [Compound 26, (4′-Fluoro-[1,1′-biphenyl]-4-carbonyl)-L-aspartic acid]			0 (inactive (0))			mSUCNR1 % @10^−4M (mSUCNR1; [3]): 7% @10^−4M; hSUCNR1 % @10^−4M (hSUCNR1; [3]): 4% @10^−4M
O=C(O)C[C@H](NC(=O)c1cccc(-c2ccc(F)cc2)n1)C(=O)O [Compound 27, (6-(4-Fluorophenyl)picolinoyl)-L-aspartic acid]	89.3 ± 6.1	78.2 ± 8.0	1 (active (1))			EC50 (mSUCNR1; [1]): 794 nM; EC50 (hSUCNR1; [1]): 933 nM
